Measurements published in PMC10700596 (Nature Communications, 2023).

Columns and labels:
PRKCE = PRKCE (Homo sapiens, UniProt Q02156); test: biochemical; assay type: binding; conditions: 10000 nM; read-out: Percent Control
Source text: (§1) . […] This panel includes several adverse drug reaction receptors such as the serotonin receptor 5HT2b, M1 and M2 muscarinic receptors and adrenergic receptors. […]. page 7:
(§2) Supplementary Figure 7: Non-GPCR off-target screening for 74. a)-e) Dose-response curves of 74 at […]
(§3) proliferator-activated receptor gamma (PPARγ, Eurofins item G124). Data in a)-e) and g)-i) represent two technical replicates. Source data are provided as a Source Data file.
(§4) (1 picture or pasted object on this page, not shown here)

AKT2 = AKT2 (Homo sapiens, UniProt P31751); test: biochemical; assay type: binding; conditions: 10000 nM; read-out: Percent Control
Chain of AKT2 (P31751 whole entry): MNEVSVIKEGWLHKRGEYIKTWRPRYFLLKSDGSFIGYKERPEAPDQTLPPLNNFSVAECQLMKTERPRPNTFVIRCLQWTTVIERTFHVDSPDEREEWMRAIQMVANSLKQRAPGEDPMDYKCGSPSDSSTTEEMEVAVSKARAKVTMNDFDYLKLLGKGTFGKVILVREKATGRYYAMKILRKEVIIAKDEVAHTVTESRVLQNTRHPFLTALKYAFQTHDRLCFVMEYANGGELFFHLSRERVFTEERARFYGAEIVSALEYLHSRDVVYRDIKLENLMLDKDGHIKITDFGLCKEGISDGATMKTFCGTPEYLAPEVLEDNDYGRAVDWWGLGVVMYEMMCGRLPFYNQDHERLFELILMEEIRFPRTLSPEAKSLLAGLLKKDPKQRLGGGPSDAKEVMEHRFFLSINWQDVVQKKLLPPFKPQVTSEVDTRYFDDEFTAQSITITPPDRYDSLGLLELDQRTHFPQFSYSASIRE
Source text: as §1, §2, §3, §4

ADCK3 = ADCK3 (Homo sapiens, UniProt Q8NI60); test: biochemical; assay type: binding; conditions: 10000 nM; read-out: Percent Control
Source text: as §1, §2, §3, §4

CDK2 = CDK2 (Homo sapiens, UniProt P24941); test: biochemical; assay type: binding; conditions: 10000 nM; read-out: Percent Control
Source text: as §1, §2, §3, §4

[1] = target: ABL1(E255K)-phosphorylated (Homo sapiens, UniProt P00519, E255K); test: biochemical; assay type: binding; conditions: 10000 nM; read-out: Percent Control
Chain of ABL1(E255K)-phosphorylated (P00519 whole entry E255K): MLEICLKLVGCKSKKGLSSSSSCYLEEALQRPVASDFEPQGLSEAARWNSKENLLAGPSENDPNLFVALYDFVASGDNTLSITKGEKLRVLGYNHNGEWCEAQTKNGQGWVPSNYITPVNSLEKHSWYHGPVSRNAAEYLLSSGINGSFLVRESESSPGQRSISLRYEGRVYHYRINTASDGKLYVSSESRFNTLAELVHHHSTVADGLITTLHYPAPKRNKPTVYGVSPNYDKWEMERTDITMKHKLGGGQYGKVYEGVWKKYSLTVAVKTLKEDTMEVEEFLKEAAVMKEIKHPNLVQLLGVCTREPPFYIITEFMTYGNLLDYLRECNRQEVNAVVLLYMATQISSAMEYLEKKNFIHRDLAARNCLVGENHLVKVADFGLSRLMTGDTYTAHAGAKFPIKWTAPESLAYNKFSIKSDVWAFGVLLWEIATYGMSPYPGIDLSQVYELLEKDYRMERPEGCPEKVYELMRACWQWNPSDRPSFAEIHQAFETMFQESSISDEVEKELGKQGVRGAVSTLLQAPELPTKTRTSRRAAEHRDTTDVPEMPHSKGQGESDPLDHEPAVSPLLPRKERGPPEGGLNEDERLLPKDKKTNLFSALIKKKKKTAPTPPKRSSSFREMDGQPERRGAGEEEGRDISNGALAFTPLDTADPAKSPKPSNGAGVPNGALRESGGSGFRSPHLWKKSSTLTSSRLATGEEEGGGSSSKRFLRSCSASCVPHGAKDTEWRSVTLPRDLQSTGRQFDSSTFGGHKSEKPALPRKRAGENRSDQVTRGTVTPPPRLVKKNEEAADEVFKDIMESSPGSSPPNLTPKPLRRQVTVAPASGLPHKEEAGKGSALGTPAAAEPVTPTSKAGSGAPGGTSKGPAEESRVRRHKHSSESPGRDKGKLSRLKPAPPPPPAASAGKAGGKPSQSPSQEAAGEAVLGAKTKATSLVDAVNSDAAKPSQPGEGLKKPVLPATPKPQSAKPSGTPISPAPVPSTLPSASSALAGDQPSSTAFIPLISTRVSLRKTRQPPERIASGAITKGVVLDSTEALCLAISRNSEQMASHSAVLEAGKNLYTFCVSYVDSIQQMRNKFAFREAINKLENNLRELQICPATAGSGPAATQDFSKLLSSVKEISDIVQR
Source text: as §1, §2, §3, §4

PDPK1 = PDPK1 (Homo sapiens, UniProt O15530); test: biochemical; assay type: binding; conditions: 10000 nM; read-out: Percent Control
Chain of PDPK1 (O15530 whole entry): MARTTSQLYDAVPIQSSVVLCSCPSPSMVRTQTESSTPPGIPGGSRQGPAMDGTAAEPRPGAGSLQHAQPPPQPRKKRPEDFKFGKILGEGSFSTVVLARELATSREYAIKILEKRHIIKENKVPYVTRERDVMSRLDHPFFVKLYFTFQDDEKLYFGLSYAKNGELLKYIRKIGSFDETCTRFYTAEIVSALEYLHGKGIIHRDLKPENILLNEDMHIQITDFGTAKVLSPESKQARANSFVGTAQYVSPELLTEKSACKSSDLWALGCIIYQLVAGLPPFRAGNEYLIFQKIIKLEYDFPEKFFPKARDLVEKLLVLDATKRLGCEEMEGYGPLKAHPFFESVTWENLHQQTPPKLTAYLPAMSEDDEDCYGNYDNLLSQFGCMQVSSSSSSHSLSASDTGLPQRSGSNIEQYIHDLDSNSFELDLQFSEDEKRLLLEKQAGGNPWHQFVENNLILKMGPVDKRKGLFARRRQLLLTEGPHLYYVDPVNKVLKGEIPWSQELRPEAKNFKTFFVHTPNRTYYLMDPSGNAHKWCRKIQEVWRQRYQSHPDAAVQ
Source text: as §1, §2, §3, §4

YANK3 = YANK3 (Homo sapiens, UniProt Q86UX6); test: biochemical; assay type: binding; conditions: 10000 nM; read-out: Percent Control
Chain of YANK3 (Q86UX6 whole entry): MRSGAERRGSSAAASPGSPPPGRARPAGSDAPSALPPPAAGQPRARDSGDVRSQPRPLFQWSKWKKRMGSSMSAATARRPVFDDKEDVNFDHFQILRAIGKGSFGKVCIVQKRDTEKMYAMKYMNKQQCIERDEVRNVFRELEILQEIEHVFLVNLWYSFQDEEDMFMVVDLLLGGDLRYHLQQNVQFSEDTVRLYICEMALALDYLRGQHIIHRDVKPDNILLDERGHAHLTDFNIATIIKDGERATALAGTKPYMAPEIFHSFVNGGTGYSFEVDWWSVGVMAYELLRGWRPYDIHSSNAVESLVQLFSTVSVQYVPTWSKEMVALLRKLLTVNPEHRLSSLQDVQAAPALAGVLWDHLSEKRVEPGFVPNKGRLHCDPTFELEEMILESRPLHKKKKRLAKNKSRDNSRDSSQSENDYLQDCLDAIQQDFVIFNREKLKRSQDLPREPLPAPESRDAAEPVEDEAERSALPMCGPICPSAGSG
Source text: as §1, §2, §3, §4

ROCK2 = ROCK2 (Homo sapiens, UniProt O75116); test: biochemical; assay type: binding; conditions: 10000 nM; read-out: Percent Control
Source text: as §1, §2, §3, §4

ACVR1B = ACVR1B (Homo sapiens, UniProt P36896); test: biochemical; assay type: binding; conditions: 10000 nM; read-out: Percent Control
Chain of ACVR1B (P36896 24-505): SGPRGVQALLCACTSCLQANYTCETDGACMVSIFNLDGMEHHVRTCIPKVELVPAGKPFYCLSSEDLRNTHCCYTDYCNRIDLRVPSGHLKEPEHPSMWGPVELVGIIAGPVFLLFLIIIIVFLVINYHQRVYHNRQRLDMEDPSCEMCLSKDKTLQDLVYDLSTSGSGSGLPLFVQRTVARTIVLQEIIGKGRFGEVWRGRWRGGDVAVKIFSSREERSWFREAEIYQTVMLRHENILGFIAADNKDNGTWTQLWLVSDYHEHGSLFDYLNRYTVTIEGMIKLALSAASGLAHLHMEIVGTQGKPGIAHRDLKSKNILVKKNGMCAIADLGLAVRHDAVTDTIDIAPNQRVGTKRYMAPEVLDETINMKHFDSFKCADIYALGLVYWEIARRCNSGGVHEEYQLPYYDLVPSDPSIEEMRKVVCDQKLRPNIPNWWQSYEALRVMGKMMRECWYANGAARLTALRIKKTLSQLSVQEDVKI
Source text: as §1, §2, §3, §4

EGFR = EGFR (Homo sapiens, UniProt P00533); test: biochemical; assay type: binding; conditions: 10000 nM; read-out: Percent Control
Chain of EGFR (P00533 25-1210): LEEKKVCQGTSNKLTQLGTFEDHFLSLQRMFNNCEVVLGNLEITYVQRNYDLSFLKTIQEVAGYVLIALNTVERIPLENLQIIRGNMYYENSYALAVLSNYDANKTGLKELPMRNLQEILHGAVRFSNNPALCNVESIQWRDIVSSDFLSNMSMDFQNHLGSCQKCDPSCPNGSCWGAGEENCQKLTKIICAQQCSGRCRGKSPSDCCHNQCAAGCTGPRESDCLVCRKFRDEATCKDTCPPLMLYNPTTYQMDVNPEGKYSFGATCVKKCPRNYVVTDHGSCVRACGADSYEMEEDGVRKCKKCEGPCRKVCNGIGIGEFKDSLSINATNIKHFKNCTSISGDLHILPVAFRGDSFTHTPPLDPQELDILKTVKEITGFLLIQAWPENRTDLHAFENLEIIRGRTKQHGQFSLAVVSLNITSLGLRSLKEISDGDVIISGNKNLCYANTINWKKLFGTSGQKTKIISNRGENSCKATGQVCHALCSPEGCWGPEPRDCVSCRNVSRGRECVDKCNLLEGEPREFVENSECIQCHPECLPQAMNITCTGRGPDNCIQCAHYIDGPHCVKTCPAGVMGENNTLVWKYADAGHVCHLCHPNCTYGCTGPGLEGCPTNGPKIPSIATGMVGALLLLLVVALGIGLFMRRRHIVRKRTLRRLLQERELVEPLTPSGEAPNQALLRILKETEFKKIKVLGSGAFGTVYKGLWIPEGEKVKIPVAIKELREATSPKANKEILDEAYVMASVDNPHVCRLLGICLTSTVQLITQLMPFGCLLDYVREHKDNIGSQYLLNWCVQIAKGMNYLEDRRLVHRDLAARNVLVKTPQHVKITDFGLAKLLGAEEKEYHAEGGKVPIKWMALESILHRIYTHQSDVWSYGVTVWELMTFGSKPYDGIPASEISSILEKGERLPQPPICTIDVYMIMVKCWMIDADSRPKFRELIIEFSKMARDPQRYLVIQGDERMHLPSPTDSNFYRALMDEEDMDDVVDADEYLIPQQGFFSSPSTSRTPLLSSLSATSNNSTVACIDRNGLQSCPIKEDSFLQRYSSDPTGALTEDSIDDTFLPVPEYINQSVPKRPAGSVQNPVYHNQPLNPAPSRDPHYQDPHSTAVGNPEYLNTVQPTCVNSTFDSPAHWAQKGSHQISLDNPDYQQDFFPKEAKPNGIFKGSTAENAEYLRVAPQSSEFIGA
Source text: as §1, §2, §3, §4

EPHA2 = EPHA2 (Homo sapiens, UniProt P29317); test: biochemical; assay type: binding; conditions: 10000 nM; read-out: Percent Control
[2] = cited from earlier work

Chain of PRKCE (Q02156 whole entry): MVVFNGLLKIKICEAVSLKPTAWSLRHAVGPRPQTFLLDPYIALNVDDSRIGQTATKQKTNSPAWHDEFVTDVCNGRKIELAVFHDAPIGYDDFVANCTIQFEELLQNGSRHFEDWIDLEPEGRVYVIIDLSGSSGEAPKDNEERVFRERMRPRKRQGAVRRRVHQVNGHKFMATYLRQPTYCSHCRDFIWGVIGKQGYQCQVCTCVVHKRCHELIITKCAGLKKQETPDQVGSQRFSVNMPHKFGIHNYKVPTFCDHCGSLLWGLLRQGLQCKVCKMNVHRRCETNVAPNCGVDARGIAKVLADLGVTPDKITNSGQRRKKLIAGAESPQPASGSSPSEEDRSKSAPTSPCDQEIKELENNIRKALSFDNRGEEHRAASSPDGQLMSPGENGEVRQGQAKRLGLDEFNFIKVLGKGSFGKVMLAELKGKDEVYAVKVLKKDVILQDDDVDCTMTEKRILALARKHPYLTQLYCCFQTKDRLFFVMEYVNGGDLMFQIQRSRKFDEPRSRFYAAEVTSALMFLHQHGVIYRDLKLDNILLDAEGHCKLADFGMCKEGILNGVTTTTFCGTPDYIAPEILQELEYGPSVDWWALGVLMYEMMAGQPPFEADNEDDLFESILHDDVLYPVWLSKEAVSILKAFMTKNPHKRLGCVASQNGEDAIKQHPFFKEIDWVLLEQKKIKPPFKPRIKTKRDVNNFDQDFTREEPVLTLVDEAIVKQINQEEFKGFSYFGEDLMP

**Q.** What does the source list for O=C(O)C1CCC2(CC1)CC(Nc1ncnc3[nH]c4c(F)cccc4c13)C2 (stereo not drawn) [Compound 74, OC(=O)C1CCC2(CC(C2)NC=3N=CN=C4NC=5C(F)=CC=CC5C34)CC1]?
**A.** remaining activity at 10 µM (PRKCE): 57%; remaining activity at 10 µM (AKT2): 74%; remaining activity at 10 µM (ADCK3): 85%; remaining activity at 10 µM (CDK2): 96%; remaining activity at 10 µM [1]: 57%; remaining activity at 10 µM (PDPK1): 64%; remaining activity at 10 µM (YANK3): 62%; remaining activity at 10 µM (ROCK2): 59%; remaining activity at 10 µM (ACVR1B): 55%; remaining activity at 10 µM (EGFR): 96%; remaining activity at 10 µM (EPHA2): 83%

**Q.** Which reported oral bioavailability [2] does the source give for CCc1nc2c(C)nc(C)cc2n1-c1ccc(CCNC(=O)NS(=O)(=O)c2ccc(C)cc2)cc1 [Grapiprant, reference compound] here?
**A.** Its reported oral bioavailability is 5%.
